Paper PMC9144521 (Viruses, 2022)

Tests used:
AdV3 = test: Anti-AdV activity assay (IFA of hexon), secondary screen, AdV3; assay type: cell-based, Human adenoviruses type 3; conditions: for Selective Index AdV3: CC50/EC50, Vero cells; for EC50: 48 h, IFA of hexon, 0.02 to 5 μM
AdV5 = test: Anti-AdV activity assay (IFA of hexon), secondary screen, AdV5; assay type: cell-based, Human adenoviruses type 5; conditions: for Selective Index AdV5: CC50/EC50, Vero cells; for EC50: 48 h, IFA of hexon, 0.02 to 5 μM
adenovirus 5 = system: adenovirus 5; set-up: method as in ref 28, 31 = [28]; conditions: cited from earlier work
in vitro = conditions: African green monkey
Aurora A/B/C = conditions: cited from earlier work
Aurora A = system: Aurora A; set-up: method as in ref 25 = [25]; conditions: cited from earlier work

Row | Compound | EC50 (AdV3; Vero cells) [µM] | EC50 (AdV5; Vero cells) [µM] | Selective Index AdV3 (AdV3) | Selective Index AdV5 (AdV5) | reported inhibition of replication of adenovirus 5 (adenovirus 5) | CC50 at 48 h (in vitro) [µM] | inhibition of AdV3 (in words) (AdV3; Vero cells) | inhibition of AdV5 (in words) (AdV5; Vero cells) | selectivity for Aurora kinases than p38α, Tyk2, and JNK2 (Aurora A/B/C) [fold] | CC50 at 48 h (in vitro; Vero cells) [µM] | CC50 (Vero cells) [µM] | selectivity for Aurora A than Aurora B (Aurora A) [fold]
1 | C=CCNC1=C2C[C@@H](C)C[C@H](OC)[C@H](O)[C@@H](C)/C=C(\C)[C@H](OC(N)=O)[C@@H](OC)/C=C\C=C(/C)C(=O)NC(=CC1=O)C2=O [17-AAG] | 0.5 | > 5 | >9.93 | >0.46 | inhibit the replication of adenovirus 5 | > 5 |  |  |  |  |  | 
2 | Cc1csc(-c2nnc(Nc3ccc(Oc4ncccc4-c4ccnc(N)n4)cc3)c3ccccc23)c1 [AMG-900] | 0.02 | > 5 | 226.12 |  |  | 3.69 | potently inhibits only AdV3 | but not AdV5 | > 10 |  |  | 
3 | O=C(/C=C\n1cnc(-c2cc(C(F)(F)F)cc(C(F)(F)F)c2)n1)NNc1ccccn1 [KPT-335] | 0.15 | 0.61 | 12.65 | 3.14 | inhibit the replication of adenovirus 5 |  |  |  |  | 1.9 |  | 
4 | O=C(/C=C\n1cnc(-c2cc(C(F)(F)F)cc(C(F)(F)F)c2)n1)N1CC(F)(F)C1 [KPT-276] | 0.1 | 0.97 | >50.46 | >5.13 |  |  |  |  |  |  | > 5 | 
5 | COC1(c2sc3c(N4CCOCC4)nc(-c4cnc(N)nc4)nc3c2C)COC1 [GNE-317] | 0.26 | 0.59 |  |  |  |  |  |  |  |  | > 5 | 
6 | Cc1cc(Nc2cc(N3CCN(C)CC3)nc(/C=C/c3ccccc3)n2)n[nH]1.O=C(O)C(O)C(O)C(=O)O [ENMD-2076 L-(+)-Tartaric acid] | 1.35 | 1.39 |  |  |  |  |  |  |  |  | 4.34 | 25
7 | COc1cccc(-c2cc(F)ccc2[C@H]2Cc3nc(N)nc(C)c3C(=O)N2)n1 [HSP990] | 0.02 | 0.03 | 205.19 | 148.47 |  |  |  |  |  |  | 4.31 | 
8 | Cl.Cl.O=S(=O)(NCCNC/C=C/c1ccc(Br)cc1)c1cccc2cnccc12 [H 89 2HCl] | 0.31 | > 5 | >15.97 |  |  |  |  |  |  |  | > 5 | 
9 | C#Cc1cccc(Nc2ncnc3cc(OCCOC)c(OCCO)cc23)c1.Cl [DesMethyl Erlotinib] | 0.51 | > 5 | >9.72 |  |  |  |  |  |  |  | > 5 | 

Further lines, with some results ahead:

Row | EC50 (AdV3; Vero cells) [µM] | EC50 (AdV5; Vero cells) [µM] | Compound | Selective Index AdV3 (AdV3) | Selective Index AdV5 (AdV5) | reported inhibition of replication of adenovirus 5 (adenovirus 5) | CC50 at 48 h (in vitro) [µM] | inhibition of AdV3 (in words) (AdV3; Vero cells) | inhibition of AdV5 (in words) (AdV5; Vero cells) | selectivity for Aurora kinases than p38α, Tyk2, and JNK2 (Aurora A/B/C) [fold] | CC50 at 48 h (in vitro; Vero cells) [µM] | CC50 (Vero cells) [µM] | selectivity for Aurora A than Aurora B (Aurora A) [fold]
10 | 0.18 | 0.16 | N#Cc1c(Oc2ccc(F)c(NC(=O)Cc3cccc(C(F)(F)F)c3)c2)ccc2nc(NC(=O)C3CC3)sc12 [TAK-632] | 11.15 | 12.3 |  |  |  |  |  |  | 1.99 | 
11 | 0.06 | 0.12 | COc1ccc(-c2cc3c(C)nc(N)nc3n([C@H]3CC[C@H](OCCO)CC3)c2=O)cn1 [PF-04691502] | >86.01 | >41.46 |  |  |  |  |  |  | > 5 | 
12 | 0.03 | 0.08 | CCNC(=O)c1[nH]nc(-c2cc(Cl)c(O)cc2O)c1-c1ccc(OC)cc1 [VER-49009] | >186.00 | >60.00 |  |  |  |  |  |  | > 5 | 
13 | 0.94 | > 5 | COc1cc(Nc2ncc(F)c(Nc3ccc4c(n3)NC(=O)C(C)(C)O4)n2)cc(OC)c1OC [R406] | >5.32 |  |  |  |  |  |  |  | > 5 | 
14 | 0.06 | 0.15 | CNC(=O)Nc1ccc(-c2nc(N3CC4CCC(C3)O4)c3cnn(C4CCC5(CC4)OCCO5)c3n2)cc1 [WYE-125132] | >89.17 | >32.47 |  |  |  |  |  |  | > 5 | 
15 | 0.17 | 0.48 | CC[C@@H](C)Nc1cc(C(=O)N[C@H]2C[C@H]3CC[C@@H](C2)N3c2ccc(C(=O)C3CC3)cn2)c(C)cc1C(N)=O [XL888] | >29.69 | >10.33 |  |  |  |  |  |  | > 5 | 
